Assay results as given in a melting point compilation (Tetko et al.).
Non-standard residues stand in square brackets, D forms with d. Residues, ends and D or L forms follow the SMILES beside them. ξ: configuration not given here. *: point of attachment. X1 = COC1=CC(=O)N(C(=O)C(O*)C(C)C)C1Cc1ccccc1; ξNMe2Val = CC(C)C(C(=O)*)N(C)C; NMeV = CN[CH](C(=O)O)C(C)C

SMILES | melting point [°C]
CCCCCCCCCCCCCCCC(=O)OC(CCCCCCCCCCCCCC)C(=O)N[C@H](C(=O)N[C@@H](CCC(=O)OCc1ccccc1)C(=O)OCc1ccccc1)C(C)C (stereo not given in full) | 65
CP(C)CCP(C)C | 0
CC(C)(C)c1cc(CCC(=O)NN=C(O)c2cc(-c3ccc(C(=O)O)c(C(O)=NNC(=O)CCc4cc(C(C)(C)C)c(O)c(C(C)(C)C)c4)c3)ccc2C(=O)O)cc(C(C)(C)C)c1O | 291 to 293
CC(C)OC(=O)C(CCC(C(=O)OC(C)C)N1CCN(CC(=O)OC(C)(C)C)CCN(C=O)CCN(CC(=O)OC(C)(C)C)CC1)N1CCN(CC(=O)OC(C)(C)C)CCN(C=O)CCN(CC(=O)OC(C)(C)C)CC1 (stereo not given) | 125 to 127
O=S(=O)(C(/C=C/c1ccc(I)cc1)c1ccc(Cl)cc1Cl)C(/C=C/c1ccc(I)cc1)c1ccc(Cl)cc1Cl (stereo not given) | 181 to 182
Cc1cccc(-c2sc(N)nc2-c2ccnc(-c3ccc(CN4CCOCC4)cc3)c2)n1 | 236
CC(=O)OCC(O)CO (stereo not given) | 17
Cc1c(Nc2c(C#N)cnc3sc(C4=CCN(C)CC4)cc23)ccc2[nH]ccc12 | 230
CC1(C)CC(N(c2nc(N(C3CC(C)(C)NC(C)(C)C3)C3CC(C)(C)NC(C)(C)C3)nc(N(C3CC(C)(C)NC(C)(C)C3)C3CC(C)(C)NC(C)(C)C3)n2)C2CC(C)(C)NC(C)(C)C2)CC(C)(C)N1 | 325 to 330
COC(=O)[C@H](CC(C)C)NC(=O)CNC(=O)[C@H](Cc1ccc(O)cc1)NC(=O)[C@H](CO)NC(=O)[C@H](Cc1c[nH]c2ccccc12)NC(=O)[C@H](Cc1c[nH]cn1)NC(=O)[C@@H]1CCC(=O)N1 | 213 to 215
CCCCOC(=O)c1ccc(=O)[nH]n1 | 79 to 80
CC(C)C(NS(=O)(=O)N(C)Cc1ccccn1)C(=O)NC(Cc1ccccc1)C(O)C(O)C(Cc1ccccc1)NC(=O)C(NS(=O)(=O)N(C)Cc1ccccn1)C(C)C (stereo not given) | 85 to 89
CCCCCCCCCCCCC=CCCC(Cl)CC1CC(=O)N(N(c2ccccc2)c2[nH]n(-c3c(Cl)cc(Cl)cc3Cl)c(=O)c2OC(=O)c2cc([N+](=O)[O-])ccc2N)C1=O (stereo not given) | 118 to 121
O=C(NCCCCCCCCCCCCNC(=O)C(O)C(O)C(OC1OC(CO)C(O)C(O)C1O)C(O)CO)C(O)C(O)C(OC1OC(CO)C(O)C(O)C1O)C(O)CO (stereo not given) | 79 to 81
FC(F)(F)c1ccc(Cl)nc1Cl | 6
COc1cccc(-c2cc3ncnc(Nc4ccc5[nH]ccc5c4)c3s2)c1 | 160 to 168
CCOC(=O)c1cn(C23CC(C2)C3)c2c(F)c(F)c(F)cc2c1=O | 176 to 178
CCCCCCCCCCCCCCCCCCN(CCCCCCCCCCCCCCCCCC)C(=O)c1c(NS(=O)(=O)c2cccc(C(C)=O)c2)cc2ccccc2c1OC(=O)c1ccccc1 | 91 to 93
CCn1cc(C(=O)Nc2cc(Oc3ccc4nc(NC(=O)C5CC5)cn4n3)ccc2Cl)c(C)n1 | 200
COc1cc(C(=O)Oc2ccc3c(OC(=O)c4ccc(OCc5ccccc5)c(OC)c4)c4cc(OC(=O)c5ccc(OCc6ccccc6)c(OC)c5)ccc4cc3c2)ccc1OCc1ccccc1 | 186 to 189

SMILES | melting point [°C]
CS(C)(=O)=NC(=O)c1cccc(Oc2ccc(C(F)(F)F)cc2Cl)c1 | 110 to 113
CS(C)(=O)=NS(=O)(=O)c1cccc(F)c1C#N | 184
COc1cc(OC)c(C=CC(c2ccc(OC)c(NC(=O)CCl)c2)S(=O)(=O)C(C=Cc2c(OC)cc(OC)cc2OC)c2ccc(OC)c(NC(=O)CCl)c2)c(OC)c1 (stereo not given) | 163 to 165
C=C(C)C(=O)OCCCCOC(=O)C(=C)C | -117
[C-]#[N+]Cc1nc2ccccc2o1 | 57 to 57.5
CCNC(=O)[C@@H]1CCCN1C(=O)[C@H](CCCNC(=N)N)NC(=O)[C@H](CC(C)C)NC(=O)[C@@H](Cc1ccc2ccccc2c1)NC(=O)[C@H](Cc1ccc(O)cc1)NC(=O)[C@H](CO)NC(=O)[C@H](Cc1c[nH]c2ccccc12)NC(=O)[C@H](Cc1c[nH]cn1)NC(=O)[C@@H]1CCC(=O)N1 | 180 to 190
COc1ccc([N+](=O)[O-])cc1C(/C=C/c1ccc(I)cc1)S(=O)(=O)C(/C=C/c1ccc(I)cc1)c1cc([N+](=O)[O-])ccc1OC (stereo not given) | 218 to 221
COC(=O)CCc1ccc(N(c2ccc(-c3ccc(N(c4ccc(CCC(=O)OC)cc4)c4cccc5c4Cc4ccccc4-5)cc3)cc2)c2cccc3c2Cc2ccccc2-3)cc1 | 127 to 129
CC(C)[C@H](NC(=O)N1CCN(c2ccccc2)CC1)C(=O)N[C@@H](Cc1ccccc1)[C@@H](O)[C@H](O)[C@H](Cc1ccccc1)NC(=O)[C@@H](NC(=O)N1CCN(c2ccccc2)CC1)C(C)C | 165 to 166
CCCCCCCCOc1ccc(NS(=O)(=O)c2cc(C(C)(C)CC(C)(C)C)ccc2OCCCCCCCC)cc1S(=O)(=O)NCC(C)c1nn2nc(C)c(Cl)c2[nH]1 (stereo not given) | 129 to 131
CCCCCCCCCCCCCCCCCCN(CCCCCCCCCCCCCCCCCC)C(=O)c1cc(NS(=O)(=O)c2cnc(NN)c(Cl)c2)c2ccccc2c1O | 75 to 77
C=C(C)C(=O)OCCCCCCCCCCCOc1ccc(-c2nc(-c3ccc(OCCCCCCCCCCCOC(=O)C(=C)C)cc3O)nc(-c3ccc(OCCCCCCCCCCCOC(=O)C(=C)C)cc3O)n2)c(O)c1 | 60.2
COC(=O)CNC(=O)[C@H](NC(=O)[C@@H](CSC(c1ccccc1)(c1ccccc1)c1ccccc1)NC(=O)[C@@H](CCCCNC(=O)OC(C)(C)C)NC(=O)C[C@H](O)C=CCCSC(c1ccccc1)(c1ccccc1)c1ccccc1)C(C)C | 85 to 87
CC(C)(C)c1cc(CCC(=O)OCC(COCC(COC(=O)CCc2cc(C(C)(C)C)c(O)c(C(C)(C)C)c2)OC(=O)CCc2cc(C(C)(C)C)c(O)c(C(C)(C)C)c2)OC(=O)CCc2cc(C(C)(C)C)c(O)c(C(C)(C)C)c2)cc(C(C)(C)C)c1O (stereo not given) | 57
Cc1cc(CCC(=O)OCC(COC(=O)CCc2cc(C)c(O)c(C(C)(C)C)c2)(COC(=O)CCc2cc(C)c(O)c(C(C)(C)C)c2)COC(=O)CCc2cc(C)c(O)c(C(C)(C)C)c2)cc(C(C)(C)C)c1O | 45 to 55
CCCCCCCCNC1(NC(=O)c2ccccc2-c2ccc(CCCCCCCC)cc2)CC(CCCC)=C(NC(=O)c2ccccc2-c2ccc(CCCCCCCC)cc2)C2=C1C(=O)c1ccccc1C2=O (stereo not given) | 94 to 95
COc1cc(OC)c(/C=C/C(c2ccc(OC)c(NC(=O)c3ccccc3)c2)S(=O)(=O)C(/C=C/c2c(OC)cc(OC)cc2OC)c2ccc(OC)c(NC(=O)c3ccccc3)c2)c(OC)c1 (stereo not given) | 163 to 166
CC(C)[Si](OC(=O)Cc1cc(I)c(Oc2cc(I)c(OCC3CO3)c(I)c2)c(I)c1)(C(C)C)C(C)C (stereo not given) | 120
O=C(NCC(O)CO)c1c(I)c(C(=O)NCC(O)CO)c(I)c(N(CCCN(C(=O)CO)c2c(I)c(C(=O)NCC(O)CO)c(I)c(C(=O)NCC(O)CO)c2I)C(=O)CO)c1I (stereo not given) | 234 to 236
CN1CCCC1=NC(=O)Nc1ccc(OCc2ccccc2)cc1 | 140 to 142

SMILES | melting point [°C]
CS(=O)(=O)c1ccc(-c2nc(C(F)(F)F)nc(N3CCN(C(=O)c4cccs4)CC3)c2-c2ccccc2)cc1 | 189 to 194
O=c1[nH]c(=Cc2ccc(OCc3ccccc3)cn2)c(=O)[nH]c1=Cc1ccc(OCc2ccccc2)cn1 | 283 to 285
CC(=O)OC1C(=O)C2(C)C(O)CC3OCC3(OC(C)=O)C2C(OC(=O)c2ccccc2)C23OC(=O)OC2C(OC(=O)C(O)C(CC(C)C)NC(=O)OC(C)(C)C)C(C)=C1C3(C)C (stereo not given) | 159
C=C(C)[C@@H]1CC[C@]2(C(=O)N[C@H]3C[C@@H](C(=O)N4CCCCC4)C3(C)C)CC[C@]3(C)[C@H](CC[C@@H]4[C@@]5(C)CC[C@H](OC(=O)[C@@H]6C[C@H](C(=O)O)C6(C)C)C(C)(C)[C@@H]5CC[C@]43C)[C@@H]12 | 258 to 269
CCC(C)C1NC(=O)C(NC(=O)C(CC(C)C)N(C)C(C)=O)C(C)OC(=O)C(Cc2ccc(OC)cc2)N(C)C(=O)C2CCCN2C(=O)C(CC(C)C)NC(=O)C(C)C(=O)C(C(C)C)OC(=O)CC1OC(C)=O (stereo not given) | 130 to 133
CCCc1nc(C(C)(C)O)c(C(=O)OC2OC(=O)c3ccccc32)n1Cc1ccc(-c2ccccc2-c2nnnn2C(c2ccccc2)(c2ccccc2)c2ccccc2)cc1 (stereo not given) | 118 to 120
Cc1ccc2cccc(OCc3c(Cl)ccc(S(=O)(=O)N4CCC[C@H]4C(=O)NC4CCN(C(=O)CCCN(C=NC(=O)OC(C)(C)C)NC(=O)OC(C)(C)C)CC4)c3Cl)c2n1 | 102 to 105
O=c1cc(O)cc(-c2ccc(Cl)cc2)o1 | 247 to 249
O=C(CC(CC(=O)OCc1cc(Br)cc(Br)c1O)C(=O)OCc1cc(Br)cc(Br)c1O)OCc1cc(Br)cc(Br)c1O | 100 to 102
COC(=O)Cc1ccc(C(NC(=O)CCC(Cc2ccccc2)(NC(=O)c2ccc(N(C)C3CCc4cc5nc(C)n(COC(=O)C(C)(C)C)c(=O)c5cc43)cc2F)C(=O)O)C(=O)OC)cc1 (stereo not given) | 85 to 90
CCC(C)C1NC(=O)C(CC(C)C)NC(=O)C2CCCN2C(=O)C(C(C)C)NC(=O)C(Cc2ccc(O)cc2)NC(=O)C2CCCN2C(=O)C2CCCN2C(=O)C(C(C)CC)NC1=O (stereo not given) (cyclo(IIPPYVPL); configuration not given here) | 180 to 182
COC1=CC(=O)N(C(=O)C(OC(=O)C2CCCN2C(=O)C2CCCN2C(=O)C(C(C)C)N(C)C(=O)C(NC(=O)C(C(C)C)N(C)C)C(C)C)C(C)C)C1Cc1ccccc1 (stereo not given) (ξNMe2Val-V[NMeV]PP-X1; configuration not given here) | 143 to 148
COc1ccc2c(c1)c(CC(=O)NCC(C)(C)SN=O)c(C)n2C(=O)c1ccc(Cl)cc1 | 177 to 178
C1CCC2NCCC2C1 (stereo not given) | 85
CCOP(=O)(OCC)Oc1ccc([N+](=O)[O-])cc1 | 35 to 38
CS(=O)(=O)C1CCN(Cc2ccc(COc3cccc4c3CN(C3CCC(=O)NC3=O)C4=O)cc2)CC1 (stereo not given) | 173 to 175
NCCC(N)c1ccccc1C(F)(F)F (stereo not given) | 213 to 217
CCCCCCCCCCCCCCCC(=O)C(O)C(O)(C(=O)c1cccc(NC(=O)C(CSC(C)=O)Cc2ccccc2)c1)C(O)C(=O)CCCCCCCCCCCCCCC (stereo not given) | 65 to 67
CN1CCC(c2nn(-c3ccncc3)c3ccccc23)CC1 | 205 to 207
CCNC(Cc1cc(I)c(Oc2cc(I)c(O)c(I)c2)c(I)c1)C(=O)O (stereo not given) | 191 to 193
